Assays:
[1] = Human serum stability by radio-HPLC; assay type: in vitro ADME; conditions: 37 °C
From the text: For biomedical imaging applications, the signal is a net function of target/background ratio. In PET imaging, this signal results from detection of γ-photons arising from annihilation events of positrons and imaging resolution is also dependent upon energy associated with a given radionuclide. Resultant radioactive metabolites could also contribute to nonspecific binding or compete with the parental tracer for binding to the target. Therefore, it is also important to investigate metabolic stability of the radiotracer to explicitly confirm whether or not biochemical targeting profiles of a given tracer are driven by a parental molecular imaging probe. […]
Binding assays were performed using previously described methods.11 Briefly, a fixed concentration (0.25 µM/well) of Aβ1–42 fibrils was incubated for 1 h at 37 °C with increasing concentrations of [18F]-9 (0.1 nM-15 nM) in 30 mM Tris-HCl pH 7.4, 0.1% BSA in a reaction volume of 150 µl. […] The exact hot:cold ([18F]-9 : 5) ratio was measured in each experiment by counting an aliquot of a sample (2 µl) of the radioligand preparation in a scintillation counter. Binding of [18F]-9 to human brain homogenates was assessed by incubating samples of insoluble fraction (1.25 µg insoluble protein/well) from AD subjects, with increasing concentrations of [18F]-9 (0.1nM-18 nM) for 1 h at 37 °C. […]

[2] = target: Aβ plaques (Homo sapiens, UniProt P05067); experiment: Ex vivo autoradiography of APP/PS1 Tg and WT mouse brain sections; assay type: in vivo; conditions: for target/reference count intensity ratio (mean ± SD): 30 min post injection, cortex and amygdala vs hypothalamus; for target/reference count intensity ratio: brain stem as reference region
Aβ plaques, sequence (P05067 672-711 limits assumed): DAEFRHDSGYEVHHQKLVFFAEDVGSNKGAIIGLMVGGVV
Method: Uptake in brain and other critical organs was analyzed in terms of percent injected dose per gram of the tissue (%ID/g) SI Table 1. For in vivo imaging of Aβ plaques, the basic pharmacokinetic model in normal brains involves a high initial penetration of the agent, accompanied by facile clearance due to lack of a binding target. […] For comparison, brain uptake ratios of [^18F]-AV-45 (2 min/2 h) and [^18F]-Florbetaben (2 min/4 h) in normal mice are 4.07 (%ID/g (brain): 2 min: 7.33 ± 1.54; 2 h: 1.80 ± 0.07; 7.33/1.80; 4.07)[10] and 5.0 (%ID/g (brain): 2 min: 4.77; 4 h: 0.95; 4.77/0.95; 5.02)[46], respectively. […] For an agent to be able to serve as an Aβ-imaging agent, literature precedents indicate that brain uptake ratio (%ID/g; the earliest time–point; 2–5 min to that of the latest time point; typically for carbon-11; 30–60 min; and F-18, 2 h) of 3.5 or above could be considered as a benchmark for ability of a given agent to cross the blood-brain barrier. Additionally, the brain uptake of a given imaging agent is also a net function of several components, such as cerebral regional blood flow, BBB permeability, plasma radiotracer concentration, and free fractions of the radiotracer in plasma and in the brain. Furthermore, the lipophilicity of a given compound also reflects a critical physicochemical trait for neuroimaging radiotracers due to its direct relationship to membrane permeability, solubility in water, and entropic contribution to binding. Literature precedents indicate that lipophilic drugs readily cross the BBB, although other chemical characteristics, including the number of hydrogen bonds, molecular weight, polar surface area and molecular size are also known to be critical traits for passive transport. […] Conversely, radiotracers that are too lipophilic can also bind plasma proteins, undergo fast metabolism, while also contributing to high nonspecific binding, such as white matter. […] For ROI analysis of the PET signal in brain section autoradiograms of transgenic mouse (Fig. 7A) and its WT counterpart (Fig. 7D), we used measured count densities in cortex and amygdala target regions and compared them with that of hypothalamus as reference region with a low plaque density as determined by Aβ immunostaining (Fig. 7B). […] Since brain stem was also devoid of plaques, we also analyzed the above target regions using brain stem as a reference region, and observed target/reference value in the transgenic to be 0.89 ± 0.1 compared to 0.45 ± 0.07 in the WT mouse. […]

CN(C)c1ncc(/C=C\c2nc3cc(OCC[18F])ccc3[se]2)cn1 [[^18F]-9]
presence of parental tracer (single radio-peak) in human serum [1]: up to 3 h
presence of parental tracer (single radio-peak) in human serum ([1]; listed as 18F-9): 3 h
target/reference count intensity ratio (mean ± SD) ([2]; 24 months APP/PS1 transgenic mouse): 1.88 ± 0.22
target/reference count intensity ratio ([2]; APP/PS1 transgenic mouse): 0.89 ± 0.1
target/reference count intensity ratio (mean ± SD) ([2]; WT control mouse): 0.96 ± 0.12
target/reference count intensity ratio ([2]; WT mouse): 0.45 ± 0.07

Source: publication PMC5090206, “Fluselenamyl: A Novel Benzoselenazole Derivative for PET Detection of Amyloid Plaques (Aβ) in Alzheimer’s Disease” (Scientific Reports, 2016)
